{"source": "patent EP0006352A1", "about": "“Hydantoins and thiohydantoins, process for their preparation and pharmaceutical compositions containing them” (BEECHAM GROUP PLC, priority 1978, dated 1980)", "key": {"[1]": {"test_system": "bronchoconstriction induced by an histamine aerosol", "experiment": "Protection of conscious guinea-pigs against histamine aerosol induced bronchoconstriction (Herxheimer test)", "type": "in vivo", "conditions": "10 gg/ml by aerosol", "procedure": "(b) The Compounds were also examined for their ability to protect conscious guinea-pigs against bronchoconstriction induced by an histamine aerosol (Herxheimer test). The Compounds were administered by aerosol.\nThe aerosol was produced in the following manner.\nWater soluble compounds were dissolved in normal saline at a concentration of 1 mg/ml. Water insoluble compounds were dissolved in ethanol at a concentration of 10 mg/ml. These solutions were then diluted to the test concentrations with normal saline."}, "[2]": {"test_system": "5-hydroxytryptamine induce bronchoconstriction", "experiment": "Inhibition of 5-hydroxytryptamine induced bronchoconstriction in the anaesthetised, artificially respired guinea-pig (Konzett-Rossler preparation)", "type": "in vivo", "conditions": "Cavia porcellus, iv", "excerpt": "(a) The Compounds were examined for their ability to inhibit 5-hydroxytryptamine induce bronchoconstriction in the anaesthetised, artificially respired guinea-pig (Konzett-Rossler preparation)."}}, "data": [{"molecule": "CCCCCCC(C)(O)CCN1C(=O)N(CC#N)C(=O)C1CC=CCCCC(=O)OCC", "note": "(stereo not drawn) [Compound 2, 1-(3'-hydroxy-3'-methyl-n-nonyl)-3-cyanomethyl-5-(6\"-ethoxycarbonyl-n-hex-2\"-enyl) hydantoin]", "values": [{"measurement": "increase in pre-convulsive coughing time", "setting": "[1]; 2 minutes after dosing", "value": 178, "unit": "%"}, {"measurement": "increase in pre-convulsive coughing time", "setting": "[1]; after 10 minutes", "value": 39, "unit": "%"}, {"measurement": "ED50", "setting": "[2]", "value": 1.1, "unit": "µg/kg"}]}]}
